Assay results reported in ChEMBL document CHEMBL1126980, “New, potent anthelmintic and acaricidal agents: 4-deoxy-4-thio-substituted avermectin derivatives” (Bioorg Med Chem Lett, 1993).
≈ marks a conversion by molar mass, not a printed value.

Key:
[1] = test system: Tetranychus urticae; experiment: Tested for acaricidal efficacy using a Tetranychus urticae (two-spotted spider mite, TSSM) contact assay; assay type: functional; set-up: concentration or dose not given beside the values
[2] = test system: Ovis aries; experiment: Tested for the anthelmintic efficacy against Trichostrongylus colubriformis at 0.1 mg/kg; range is 76-90%; assay type: functional
[3] = test system: Ovis aries; experiment: Tested for the anthelmintic efficacy against Cooperia curticei at 0.1 mg/kg; range is 51-75%; assay type: functional
[4] = test system: Trichostrongylus colubriformis; experiment: Tested in vivo for the biological efficacy using Trichostrongylus colubriformis gerbil assay; assay type: functional
[5] = test system: Caenorhabditis elegans; experiment: Tested in vitro for the biological efficacy using Caenorhabditis elegans binding assay; assay type: functional, organism-based
[6] = test system: Artemia salina; experiment: Tested in vitro for the biological efficacy using Artemia salina (brine shrimp) immobilization assay; assay type: functional
[7] = test system: Ovis aries; experiment: Tested for the anthelmintic efficacy against Ostertagia circumcincta at 0.1 mg/kg; range is 91-100%; assay type: functional
[8] = test system: Ovis aries; experiment: Tested for the anthelmintic efficacy against Oesphagostomum columbianum at 0.1 mg/kg; range is 91-100%; assay type: functional
[9] = test system: Ovis aries; experiment: Tested for the anthelmintic efficacy against Trichostrongylus axei at 0.1 mg/kg; range is 91-100%; assay type: functional
[10] = test system: Ovis aries; experiment: Tested for anthelmintic efficacy against Haemonchus contortus at 0.1 mg/kg; range is 91-100%; assay type: functional
[11] = test system: Ovis aries; experiment: Tested for the anthelmintic efficacy against Trichostrongylus colubriformis at 0.1 mg/kg; range is 91-100%; assay type: functional
[12] = test system: Ovis aries; experiment: Tested for the anthelmintic efficacy against Trichostrongylus axei at 0.1 mg/kg; range is 76-90%; assay type: functional
[13] = test system: Ovis aries; experiment: Tested for the anthelmintic efficacy against Cooperia curticei at 0.1 mg/kg; assay type: functional
[14] = test system: Ovis aries; experiment: Tested for the anthelmintic efficacy against Ostertagia circumcincta at 0.1 mg/kg; range is 76-90%; assay type: functional
[15] = test system: Ovis aries; experiment: Tested for the anthelmintic efficacy against Cooperia curticei at 0.1 mg/kg; range is 91-100%; assay type: functional
[16] = test system: Ovis aries; experiment: Tested for the anthelmintic efficacy against Trichostrongylus colubriformis at 0.1 mg/kg; range is 51-75%; assay type: functional
[17] = test system: Ovis aries; experiment: Tested for the anthelmintic efficacy against Ostertagia circumcincta at 0.1 mg/kg; assay type: functional
[18] = test system: Ovis aries; experiment: Tested for the anthelmintic efficacy against Trichostrongylus axei at 0.1 mg/kg; range is 51-75%; assay type: functional
[19] = test system: Ovis aries; experiment: Tested for the anthelmintic efficacy against Ostertagia circumcincta at 0.1 mg/kg; range is 51-75%; assay type: functional
[20] = test system: Ovis aries; experiment: Tested for the anthelmintic efficacy against Cooperia curticei at 0.1 mg/kg; range is 76-90%; assay type: functional
[21] = test system: Ovis aries; experiment: Tested for the anthelmintic efficacy against Oesphagostomum columbianum at 0.15 mg/kg; assay type: functional
[22] = test system: Ovis aries; experiment: Tested for anthelmintic efficacy against Haemonchus contortus at 0.15 mg/kg; range is 76-90%; assay type: functional
[23] = test system: Ovis aries; experiment: Tested for the anthelmintic efficacy against Trichostrongylus axei at 0.15 mg/kg; range is 91-100%; assay type: functional
[24] = test system: Ovis aries; experiment: Tested for the anthelmintic efficacy against Ostertagia circumcincta at 0.15 mg/kg; range is 76-90%; assay type: functional
[25] = test system: Ovis aries; experiment: Tested for the anthelmintic efficacy against Trichostrongylus colubriformis at 0.15 mg/kg; range is 91-100%; assay type: functional
[26] = test system: Ovis aries; experiment: Tested for the anthelmintic efficacy against Cooperia curticei at 0.15 mg/kg; range is 91-100%; assay type: functional

Structure (SMILES)	Mortality [1] [%]	Reduction [2] [%]	ED85 [4] [mg/kg]	IC50 [5] [ng/mL]	IC100 [6] [ng/mL]	Reduction [7] [%]	Reduction [8] [%]	Reduction [9] [%]	Reduction [10] [%]	Reduction [11] [%]	Reduction [13] [%]	Reduction [15] [%]	further results
CCC(C)[C@H]1O[C@]2(C=C[C@@H]1C)C[C@@H]1C[C@@H](C/C=C(\C)[C@@H](O[C@H]3C[C@H](OC)[C@@H](O[C@H]4C[C@H](OC)[C@H](S(=O)(=O)CCO)[C@H](C)O4)[C@H](C)O3)[C@@H](C)/C=C/C=C3\CO[C@@H]4[C@H](O)C(C)=C[C@@H](C(=O)O1)[C@]34O)O2 (some centres not stated)	34	76	0.063	0.363 (≈ 0.376 nM)	870	91	91	91	91				Reduction [3]: 51%
CCC(C)[C@H]1O[C@]2(C=C[C@@H]1C)C[C@@H]1C[C@@H](C/C=C(\C)[C@@H](O[C@H]3C[C@H](OC)[C@@H](O[C@H]4C[C@H](OC)[C@H](SCCOC(C)=O)[C@H](C)O4)[C@H](C)O3)[C@@H](C)/C=C/C=C3\CO[C@@H]4[C@H](O)C(C)=C[C@@H](C(=O)O1)[C@]34O)O2 (some centres not stated)	68		0.125	0.525 (≈ 0.538 nM)	1730	91	91		91	91	<50		Reduction [12]: 76%
CCC(C)[C@H]1O[C@]2(C=C[C@@H]1C)C[C@@H]1C[C@@H](C/C=C(\C)[C@@H](O[C@H]3C[C@H](OC)[C@@H](O[C@H]4C[C@H](OC)[C@@H](S(C)(=O)=O)[C@H](C)O4)[C@H](C)O3)[C@@H](C)/C=C/C=C3\CO[C@@H]4[C@H](O)C(C)=C[C@@H](C(=O)O1)[C@]34O)O2 (some centres not stated)	85		0.125	0.098 (≈ 0.105 nM)	430		91	91	91	91		91	Reduction [14]: 76%
CCC(C)[C@H]1O[C@]2(C=C[C@@H]1C)C[C@@H]1C[C@@H](C/C=C(\C)[C@@H](O[C@H]3C[C@H](OC)[C@H](SCCNC(C)=O)[C@H](C)O3)[C@@H](C)/C=C/C=C3\CO[C@@H]4[C@H](O)C(C)=C[C@@H](C(=O)O1)[C@]34O)O2 (some centres not stated)			0.063		430	91	91	91	91	91	<50		
CCC(C)[C@H]1O[C@]2(C=C[C@@H]1C)C[C@@H]1C[C@@H](C/C=C(\C)[C@@H](O[C@H]3C[C@H](OC)[C@@H](O[C@H]4C[C@H](OC)[C@H](SCCNC(C)=O)[C@H](C)O4)[C@H](C)O3)[C@@H](C)/C=C/C=C3\CO[C@@H]4[C@H](O)C(C)=C[C@@H](C(=O)O1)[C@]34O)O2 (some centres not stated)	29		0.031	0.127 (≈ 0.13 nM)	870	91	91	91	91			91	Reduction [16]: 51%
CCC(C)[C@H]1O[C@]2(C=C[C@@H]1C)C[C@@H]1C[C@@H](C/C=C(\C)[C@@H](O[C@H]3C[C@H](OC)[C@@H](O[C@H]4C[C@H](OC)[C@H](SCCO)[C@H](C)O4)[C@H](C)O3)[C@@H](C)/C=C/C=C3\CO[C@@H]4[C@H](O)C(C)=C[C@@H](C(=O)O1)[C@]34O)O2 (some centres not stated)	55	76	0.063	0.784 (≈ 0.84 nM)	650	91	91	91	91		<50		
CCC(C)[C@H]1O[C@]2(C=C[C@@H]1C)C[C@@H]1C[C@@H](C/C=C(\C)[C@@H](O[C@H]3C[C@H](OC)[C@@H](O[C@H]4C[C@H](OC)[C@@H](SCCO)[C@H](C)O4)[C@H](C)O3)[C@@H](C)/C=C/C=C3\CO[C@@H]4[C@H](O)C(C)=C[C@@H](C(=O)O1)[C@]34O)O2 (some centres not stated)	70	76	0.063	0.091 (≈ 0.0975 nM)	870		91		91		<50		Reduction [17]: <50%; Reduction [18]: 51%
CCC(C)[C@H]1O[C@]2(C=C[C@@H]1C)C[C@@H]1C[C@@H](C/C=C(\C)[C@@H](O[C@H]3C[C@H](OC)[C@@H](O[C@H]4C[C@H](OC)[C@@H](SC)[C@H](C)O4)[C@H](C)O3)[C@@H](C)/C=C/C=C3\CO[C@@H]4[C@H](O)C(C)=C[C@@H](C(=O)O1)[C@]34O)O2 (some centres not stated)	98		0.25	0.226 (≈ 0.25 nM)	3470		91		91				Reduction [12]: 76%; Reduction [19]: 51%; Reduction [16]: 51%; Reduction [20]: 76%
CCC(C)[C@H]1O[C@]2(C=C[C@@H]1C)C[C@@H]1C[C@@H](C/C=C(\C)[C@@H](O[C@H]3C[C@H](OC)[C@@H](O[C@H]4C[C@H](OC)[C@H](SC)[C@H](C)O4)[C@H](C)O3)[C@@H](C)/C=C/C=C3\CO[C@@H]4[C@H](O)C(C)=C[C@@H](C(=O)O1)[C@]34O)O2 (some centres not stated)	92	76	0.063	0.06 (≈ 0.0664 nM)	1730		91	91	91			91	Reduction [14]: 76%
CCC(C)[C@H]1O[C@]2(C=C[C@@H]1C)C[C@@H]1C[C@@H](C/C=C(\C)[C@@H](O[C@H]3C[C@H](OC)[C@H](S(=O)(=O)CCO)[C@H](C)O3)[C@@H](C)/C=C/C=C3\CO[C@@H]4[C@H](O)C(C)=C[C@@H](C(=O)O1)[C@]34O)O2 (some centres not stated)	94		> 0.25		870								Reduction [21]: <50%; Reduction [22]: 76%; Reduction [23]: 91%; Reduction [24]: 76%; Reduction [25]: 91%; Reduction [26]: 91%
